The text below walks through data of PMC4047469 (Molecular & Cellular Proteomics : MCP, 2014).

The target of experiment [1] is T1, DDR2 (Homo sapiens, UniProt Q16832).
T1 sequence (Q16832 22-855): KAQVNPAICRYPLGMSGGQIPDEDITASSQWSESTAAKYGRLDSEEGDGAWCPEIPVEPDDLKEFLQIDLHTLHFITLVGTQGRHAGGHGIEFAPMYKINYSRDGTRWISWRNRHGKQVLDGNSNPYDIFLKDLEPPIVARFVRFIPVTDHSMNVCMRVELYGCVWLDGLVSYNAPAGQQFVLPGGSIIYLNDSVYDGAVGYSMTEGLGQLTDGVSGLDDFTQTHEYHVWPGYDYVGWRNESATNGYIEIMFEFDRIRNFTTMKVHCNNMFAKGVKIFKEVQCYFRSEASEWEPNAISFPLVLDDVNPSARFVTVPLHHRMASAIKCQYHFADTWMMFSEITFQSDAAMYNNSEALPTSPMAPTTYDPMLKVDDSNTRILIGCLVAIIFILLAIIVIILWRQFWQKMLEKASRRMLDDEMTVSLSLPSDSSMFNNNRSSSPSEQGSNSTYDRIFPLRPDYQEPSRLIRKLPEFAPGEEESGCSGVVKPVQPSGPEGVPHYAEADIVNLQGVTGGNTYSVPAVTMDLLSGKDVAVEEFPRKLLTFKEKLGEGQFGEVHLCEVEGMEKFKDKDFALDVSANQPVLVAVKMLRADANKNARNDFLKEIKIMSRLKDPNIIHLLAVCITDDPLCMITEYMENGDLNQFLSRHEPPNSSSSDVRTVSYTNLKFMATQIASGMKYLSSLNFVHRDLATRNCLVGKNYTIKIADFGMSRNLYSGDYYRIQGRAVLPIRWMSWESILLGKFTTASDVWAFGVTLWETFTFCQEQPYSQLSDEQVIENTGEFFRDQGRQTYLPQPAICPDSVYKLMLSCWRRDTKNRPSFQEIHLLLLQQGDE
In words: autophosphorylation immunoblot. The experiment is classed as cell-based. The following applies: 293T cells, collagen I 20 μg/ml, 120 min; E-3810 2, 8, 32 μM. On the technique in general: Immunoblotting shows a protein as a band on a membrane.

Experiment [2] deals with FGFR2 (Homo sapiens, UniProt P21802). The experiment is described as follows: in vitro kinase assay. The experiment is classed as biochemical.
Experiment [3] concerns the target SRC (Homo sapiens, UniProt P12931). The experiment is described as follows: radiometric filter-binding kinase assay. The format is biochemical.

Chain of SRC (P12931 2-536): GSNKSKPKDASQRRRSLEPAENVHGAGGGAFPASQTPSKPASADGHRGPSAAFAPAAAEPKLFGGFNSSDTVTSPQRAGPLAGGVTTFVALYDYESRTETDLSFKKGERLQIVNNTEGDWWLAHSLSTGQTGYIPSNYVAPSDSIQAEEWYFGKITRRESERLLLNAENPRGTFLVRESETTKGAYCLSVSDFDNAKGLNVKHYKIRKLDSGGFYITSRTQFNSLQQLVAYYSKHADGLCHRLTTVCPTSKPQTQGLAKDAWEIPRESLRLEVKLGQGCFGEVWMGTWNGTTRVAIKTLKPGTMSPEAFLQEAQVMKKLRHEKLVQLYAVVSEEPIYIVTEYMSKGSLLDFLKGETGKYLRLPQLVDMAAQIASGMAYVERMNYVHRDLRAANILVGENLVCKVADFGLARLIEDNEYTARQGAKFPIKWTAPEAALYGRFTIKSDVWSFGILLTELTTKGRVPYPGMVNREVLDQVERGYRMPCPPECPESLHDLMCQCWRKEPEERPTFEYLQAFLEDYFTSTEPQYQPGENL
Chain of FGFR2 (P21802 22-821): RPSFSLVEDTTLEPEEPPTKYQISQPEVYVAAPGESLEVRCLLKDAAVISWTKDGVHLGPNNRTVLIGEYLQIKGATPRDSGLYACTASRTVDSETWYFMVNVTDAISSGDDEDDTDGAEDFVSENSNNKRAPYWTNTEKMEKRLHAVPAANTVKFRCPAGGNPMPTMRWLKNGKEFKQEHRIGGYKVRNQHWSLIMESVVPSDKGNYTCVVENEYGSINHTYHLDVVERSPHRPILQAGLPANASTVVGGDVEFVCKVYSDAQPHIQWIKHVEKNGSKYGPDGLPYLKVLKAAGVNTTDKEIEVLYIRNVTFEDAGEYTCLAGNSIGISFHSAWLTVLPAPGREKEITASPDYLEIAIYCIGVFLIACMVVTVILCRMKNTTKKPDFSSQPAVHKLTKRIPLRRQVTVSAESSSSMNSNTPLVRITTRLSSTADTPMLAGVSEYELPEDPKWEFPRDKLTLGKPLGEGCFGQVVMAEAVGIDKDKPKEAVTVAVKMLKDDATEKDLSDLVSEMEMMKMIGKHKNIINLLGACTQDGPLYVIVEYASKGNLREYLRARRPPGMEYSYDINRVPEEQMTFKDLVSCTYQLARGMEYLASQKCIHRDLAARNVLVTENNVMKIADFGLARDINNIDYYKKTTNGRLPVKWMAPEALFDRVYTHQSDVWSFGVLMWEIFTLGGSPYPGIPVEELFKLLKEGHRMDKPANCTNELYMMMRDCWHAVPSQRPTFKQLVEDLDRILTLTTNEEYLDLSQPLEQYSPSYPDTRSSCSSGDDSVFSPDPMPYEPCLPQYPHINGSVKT

Regarding `CNC(=O)c1cccc2cc(Oc3ccnc4cc(OCC5(N)CC5)c(OC)cc34)ccc12` [compound 1, E-3810], the autophosphorylation immunoblot entry in experiment [1] was “increasing concentrations of E-3810 resulted in the reduction of DDR2 autophosphorylation”. In experiment [2], this molecule registered an IC50 of 77 nM. Moreover, in experiment [3], the Ki is more than 50000 nM.

As usually defined, the IC50 is the concentration that gives 50% inhibition. A low value points to higher potency. As usually defined, the Ki is the dissociation constant of the complex between target and ligand, obtained from inhibition or displacement. The low end stands for a stronger hold on the target, the high end for a looser hold on the target.
